Experimental data: patent publication US6867206B1, “6-carboxyphenyldihydropyridazinone derivatives and use thereof” (Bayer Aktiengesellschaft, priority 1999, dated 2005)

SMILES	melting point
O=C1CCC(c2ccc(C(=O)Nc3ccccc3)cc2)=NN1 [Example 13]	> 250 °C
O=C1CCC(c2ccc(C(=O)NCc3cccnc3)cc2)=NN1 [Example 20]	220 to 223 °C
O=C1CCC(c2ccc(C(=O)OC3CCCC3)cc2)=NN1 [Example 35]	167 to 169 °C
CN(CCOC(=O)c1ccc(C2=NNC(=O)CC2)cc1)Cc1ccccc1 [Example 37]	90 to 91 °C
C=CCOC(=O)c1ccc(C2=NNC(=O)CC2)cc1 [Example 36]	131 to 133 °C
CC1CC(=O)NN=C1c1ccc(C(=O)Nc2cccnc2)cc1 (stereo not shown) [Example 53]	267 to 268 °C
O=C1CCC(c2ccc(C(=O)NC3CCCCC3)cc2)=NN1 [Example 27]	249 to 250 °C
O=C1CCC(c2ccc(C(=O)NCc3ccco3)cc2)=NN1 [Example 5]	208 to 210 °C
Cc1ccc(NC(=O)c2ccc(C3=NNC(=O)CC3)cc2)cc1 [Example 21]	> 250 °C
O=C1CCC(c2ccc(C(=O)N3CCOCC3)cc2)=NN1 [Example 29]	202 to 203 °C
NC(=O)c1ccccc1NC(=O)c1ccc(C2=NNC(=O)CC2)cc1 [Example 51]	> 250 °C
O=C1CCC(c2ccc(C(=O)N3CCCc4ccccc43)cc2)=NN1 [Example 25]	215 to 216 °C
O=C1CCC(c2ccc(C(=O)OCC3CCC3)cc2)=NN1 [Example 40]	155 to 156 °C
CCOC(=O)c1ccc(C2=NNC(=O)CC2)cc1 [Example 12]	157 to 159 °C
O=C1CCC(c2ccc(C(=O)Nc3cccc(Cl)c3)cc2)=NN1 [Example 22]	> 250 °C
COC(=O)c1ccc(NC(=O)c2ccc(C3=NNC(=O)CC3)cc2)o1 [Example 24]	> 260 °C
O=C1CCC(c2ccc(C(=O)NC3CC3)cc2)=NN1 [Example 11]	248 to 250 °C
O=C1CCC(c2ccc(C(=O)Nc3ccccc3Cl)cc2)=NN1 [Example 18]	209 to 210 °C

SMILES	melting point
CCCCNC(=O)c1ccc(C2=NNC(=O)CC2)cc1 [Example 4]	217 to 218 °C
O=C1CCC(c2ccc(C(=O)Nc3cccc(C(F)(F)F)c3)cc2)=NN1 [Example 28]	229 to 230 °C
CN(C(=O)c1ccc(C2=NNC(=O)CC2)cc1)c1ccccc1 [Example 42]	208 to 209 °C
CNC(=O)c1ccc(C2=NNC(=O)CC2)cc1 [Example 14]	233 to 234 °C
COC(=O)c1ccc(C2=NNC(=O)CC2)cc1 [Example 6]	203 to 205 °C
O=C1CCC(c2ccc(C(=O)NCc3ccccc3F)cc2)=NN1 [Example 49]	186 to 187 °C
CC1CC(=O)NN=C1c1ccc(C(=O)NC2CC2)cc1 (stereo not shown) [Example 57]	216 to 217 °C
CC1CC(=O)NN=C1c1ccc(C(=O)Nc2ccc3ccccc3c2)cc1 (stereo not shown) [Example 55]	271 to 272 °C
CC(C)CNC(=O)c1ccc(C2=NNC(=O)CC2C)cc1 (stereo not shown) [Example 62]	166 to 167 °C
CC(C)COC(=O)c1ccc(C2=NNC(=O)CC2)cc1 [Example 32]	259 to 260 °C
CC1CC(=O)NN=C1c1ccc(C(=O)Nc2cccc3ccccc23)cc1 (stereo not shown) [Example 54]	266 to 267 °C
O=C1CCC(c2ccc(C(=O)NCc3ccc(Cl)c(Cl)c3)cc2)=NN1 [Example 30]	208 to 209 °C
CCNC(=O)c1ccc(C2=NNC(=O)CC2)cc1 [Example 15]	228 to 230 °C
O=C1CCC(c2ccc(C(=O)NCCc3ccccc3F)cc2)=NN1 [Example 43]	189 to 190 °C
O=C1CCC(c2ccc(C(=O)Nc3c(F)cccc3F)cc2)=NN1 [Example 45]	278 to 279 °C
COc1ccc(CCNC(=O)c2ccc(C3=NNC(=O)CC3C)cc2)cc1 (stereo not shown) [Example 60]	245 to 246 °C
CC1CC(=O)NN=C1c1ccc(C(=O)N2CCCc3ccccc32)cc1 (stereo not shown) [Example 56]	> 260 °C
O=C1CCC(c2ccc(C(=O)NCCc3ccccc3)cc2)=NN1 [Example 10]	223 to 226 °C

Other lines, results leading:

melting point	SMILES
156 to 157 °C	O=C1CCC(c2ccc(C(=O)OCc3ccccc3)cc2)=NN1 [Example 41]
215 to 216 °C	O=C1CCC(c2ccc(C(=O)NCCc3cccs3)cc2)=NN1 [Example 44]
164 to 165 °C	COc1cccc(CCNC(=O)c2ccc(C3=NNC(=O)CC3C)cc2)c1 (stereo not shown) [Example 61]
208 to 209 °C	O=C1CCC(c2ccc(C(=O)NCc3ccccc3)cc2)=NN1 [Example 7]
> 250 °C	O=C1CCC(c2ccc(C(=O)Nc3c(Cl)cccc3Cl)cc2)=NN1 [Example 8]
152 to 153 °C	CC(C)CCNC(=O)c1ccc(C2=NNC(=O)CC2C)cc1 (stereo not shown) [Example 58]
146 to 147 °C	COc1ccc(CCNC(=O)c2ccc(C3=NNC(=O)CC3C)cc2)cc1OC (stereo not shown) [Example 63]
242 to 243 °C	CC(NC(=O)c1ccc(C2=NNC(=O)CC2)cc1)c1ccccc1 (stereo not shown) [Example 23]
283 to 284 °C	CCCOC(=O)c1ccc(C2=NNC(=O)CC2)cc1 [Example 31]
104 to 105 °C	CC(OC(=O)c1ccc(C2=NNC(=O)CC2)cc1)C1CC1 (stereo not shown) [Example 38]
158 to 159 °C	O=C1CCC(c2ccc(C(=O)OCC3CC3)cc2)=NN1 [Example 34]
258 to 260 °C	O=C1CCC(c2ccc(C(=O)NCc3cccc4ccccc34)cc2)=NN1 [Example 16]
120 to 122 °C	CCC(C)OC(=O)c1ccc(C2=NNC(=O)CC2)cc1 (stereo not shown) [Example 33]
146 to 148 °C	O=C1CCC(c2ccc(C(=O)OCCc3ccccc3)cc2)=NN1 [Example 39]
186 to 187 °C	CC1CC(=O)NN=C1c1ccc(C(=O)NCC(c2ccccc2)c2ccccc2)cc1 (stereo not shown) [Example 59]
> 250 °C	NC(=O)c1ccsc1NC(=O)c1ccc(C2=NNC(=O)CC2)cc1 [Example 47]
155 to 156 °C	CC(C)OC(=O)c1ccc(C2=NNC(=O)CC2)cc1 [Example 9]
182 to 184 °C	O=C1CCC(c2ccc(C(=O)N3CCCCC3)cc2)=NN1 [Example 19]
228 to 230 °C	O=C1CCC(c2ccc(C(=O)NCc3ccccn3)cc2)=NN1 [Example 17]
